Consider 25 molecules from patent US8697877B2, “Oxyindole derivatives with motilin receptor agonistic activity” (RaQualia Pharma Inc., priority 2009, dated 2014).

pEC50: −log10 of the molar value.

The target in one experiment is T1, human motilin receptor (GPR38) (Homo sapiens, UniProt O43193).
T1 construct: expressed in transfected cells; host or cells: CHO-K1
T1 sequence (O43193 whole entry): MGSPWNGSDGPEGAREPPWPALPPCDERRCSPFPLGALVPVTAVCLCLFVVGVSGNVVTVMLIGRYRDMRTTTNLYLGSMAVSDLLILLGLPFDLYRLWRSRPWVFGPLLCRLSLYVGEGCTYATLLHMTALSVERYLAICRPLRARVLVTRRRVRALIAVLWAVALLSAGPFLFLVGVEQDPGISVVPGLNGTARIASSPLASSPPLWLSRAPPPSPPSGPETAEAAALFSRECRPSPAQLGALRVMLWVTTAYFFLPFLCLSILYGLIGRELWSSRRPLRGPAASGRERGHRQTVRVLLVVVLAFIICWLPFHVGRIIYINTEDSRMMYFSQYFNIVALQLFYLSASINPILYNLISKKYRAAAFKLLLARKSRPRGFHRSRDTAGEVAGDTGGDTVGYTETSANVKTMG
In words: GPR38 (Motilin Receptor) Functional Assay, NFAT-beta-lactamase reporter in CHO-K1 cells. It counts as cell-based.
Settings: not given
The method, then: The potencies and efficacies of the compounds of this invention for GPR38 can be determined by reporter assay performed on the human cloned receptor as described herein.
GPR38 (Motilin Receptor) Functional Assay
A CHO-K1 cell line stably transfected NFAT-beta-lactamase reporter and human motilin receptor gene was used. The cells were cultured in culture medium (Dulbecco's modified eagle medium containing 10% fetal bovine serum, 1 mM sodium pyruvate, 0.1 mM MEM nonessential amino acids, 25 mM HEPES buffer, 50 units/mL penicillin, 50 microg/mL streptomycin, 100 microg/mL zeocin, and 500 microg/mL G418). The cells were harvested with 0.05% trypsin EDTA and centrifuged. The cell pellets were resuspended in the culture medium and plated into a black/clear bottom 384-well plate at a density of 8000 cells per well, then incubated at 37° C. with 5% CO2 for over night (about 20 hours). On the day of assay, the culture medium was aspirated and 20 microL of assay medium (Dulbecco's modified eagle medium containing 100 units/mL penicillin and 100 microg/mL streptomycin) was added to each well, then the cell plates were placed in incubator at 37° C. with 5% CO2 for 1.5 hours. Compounds were prepared in 100% DMSO and these were diluted to 5× of final concentration with assay buffer (Hanks balanced salt solution, 20 mM HEPES, and 0.1% BSA), then dispensed into 384-well plate (5 microL/well). After incubation at 37° C. with 5% CO2 for 4.5 hours, CCF4-AM loading solution (Invitrogen Corp.) was added to each well. After incubation for 2 hours at room temperature, fluorescence intensities were measured by using plate reader FDSS (Hamamatsu Photonics K. K.) with excitation 400 nm, emission 465 nm/540 nm. Agonistic activity (EC50) was calculated from the sigmoidal dose-response curve using GraphPad Prism software (GraphPad Software, Inc.).
In the case of `CN[C@@H]1CC[C@H](C(=O)N[C@@H](Cc2ccccc2F)C(=O)N2CCC(N3C(=O)C(C)(C)c4ccccc43)CC2)C1` [Example 32, (1S,3R)-N-((S)-1-(4-(3,3-dimethyl-2-oxoindolin-1-yl)piperidin-1-yl)-3-(2-fluorophenyl)-1-oxopropan-2-yl)-3-(methylamino)cyclopentane-carboxamide], the negative logarithm of the EC50 (pEC50) (as a rule, the negative decadic logarithm of the EC50, by convention in mol/L) was no less than 8.00. Still for that read-out and setting: next, `CN1CCC(C)(NC(=O)N[C@@H](CCc2ccccc2)C(=O)N2CCC(N3C(=O)C(C)(C)c4ccccc43)CC2)CC1` [Example 69, (S)-1-(1-(4-(3,3-dimethyl-2-oxo-indolin-1-yl)piperidin-1-yl)-1-oxo-4-phenylbutan-2-yl)-3-(1,4-dimethylpiperidin-4-yl)urea]: no less than 8.00.

For the molecule `CN[C@@H]1CC[C@H](C(=O)N[C@@H](CC2CCCCC2)C(=O)N2CCC(N3C(=O)C(C)(C)c4ccccc43)CC2)C1` [Example 23, (1S,3R)-N-((S)-3-cyclohexyl-1-(4-(3,3-dimethyl-2-oxoindolin-1-yl)piperidin-1-yl)-1-oxopropan-2-yl)-3-(methyl-amino)cyclopentanecarboxamide], the negative logarithm of the EC50 (pEC50) was no less than 8.00. Still for that read-out and setting: next, `CN[C@@H]1CC[C@H](C(=O)N[C@@H](COc2ccccc2Cl)C(=O)N2CCC(N3C(=O)C(C)(C)c4ccccc43)CC2)C1` [Example 39, (1S,3R)-N-((S)-3-(2-chlorophenoxy)-1-(4-(3,3-dimethyl-2-oxoindolin-1-yl)piperidin-1-yl)-1-oxopropan-2-yl)-3-(methylamino)cyclopentanecarboxamide]: no less than 8.00; `CC1(C)C(=O)N(C2CCN(C(=O)[C@H](Cc3ccccc3C(F)(F)F)NC(=O)[C@@H]3CCCNC3)CC2)c2ccccc21` [Example 85, (R)-N-((S)-1-(4-(3,3-dimethyl-2-oxoindolin-1-yl)piperidin-1-yl)-1-oxo-3-(2-(trifluoromethyl)phenyl)propan-2-yl) piperidine-3-carboxamide]: no less than 8.00.

`CC1(C)C(=O)N(C2CCN(C(=O)[C@H](CCc3ccccc3)NC(=O)NC[C@@H]3CCNC3)CC2)c2ccccc21` [Example 53, 1-((S)-1-(4-(3,3-dimethyl-2-oxo-indolin-1-yl)piperidin-1-yl)-1-oxo-4-phenylbutan-2-yl)-3-((R)-pyrrolidin-3-ylmethyl)urea] showed a pEC50 of no less than 8.00. Molecule `CC1(C)C(=O)N(C2CCN(C(=O)[C@H](Cc3ccccc3Cl)NC(=O)[C@@H]3CCCNC3)CC2)c2ccccc21` [Example 86, (R)-N-((S)-3-(2-chloro-phenyl)-1-(4-(3,3-dimethyl-2-oxoindolin-1-yl)piperidin-1-yl)-1-oxo-propan-2-yl)piperidine-3-carboxamide] gave a pEC50 of no less than 8.00. Still for that read-out and setting: the value for `CN[C@H]1CCN(C(=O)N[C@@H](Cc2ccccc2Cl)C(=O)N2CCC(N3C(=O)C(C)(C)c4ccccc43)CC2)C1` [Example 93, (S)-N-((S)-3-(2-chloro-phenyl)-1-(4-(3,3-dimethyl-2-oxoindolin-1-yl)piperidin-1-yl)-1-oxopropan-2-yl)-3-(methylamino)pyrrolidine-1-carboxamide] was no less than 8.00.

Regarding `CC1(NC(=O)N[C@@H](CCc2ccccc2)C(=O)N2CCC(N3C(=O)C(C)(C)c4cc(F)ccc43)CC2)CCNCC1` [Example 72], the pEC50 is no less than 8.00. On the same count and under the same terms, the value for `CN[C@@H]1CC[C@H](C(=O)N[C@@H](Cc2ccc(F)cc2)C(=O)N2CCC(N3C(=O)C(C)(C)c4ccccc43)CC2)C1` [Example 27, (1S,3R)-N-((S)-1-(4-(3,3-dimethyl-2-oxoindolin-1-yl)piperidin-1-yl)-3-(4-fluorophenyl)-1-oxopropan-2-yl)-3-(methylamino)cyclopentane-carboxamide] was no less than 8.00; that for `CC1(C)C(=O)N(C2CCN(C(=O)[C@H](CCc3ccccc3)NC(=O)N[C@@H]3CCCNC3)CC2)c2ccccc21` [Example 49, 1-((S)-1-(4-(3,3-dimethyl-2-oxo-indolin-1-yl)piperidin-1-yl)-1-oxo-4-phenylbutan-2-yl)-3-((R)-piperidin-3-yl)urea] was no less than 8.00. `CN[C@@H]1CC[C@H](C(=O)N[C@@H](COc2ccccc2)C(=O)N2CCC(N3C(=O)C(C)(C)c4ccccc43)CC2)C1` [Example 38, (1S,3R)-N-((S)-1-(4-(3,3-dimethyl-2-oxoindolin-1-yl)piperidin-1-yl)-1-oxo-3-phenoxypropan-2-yl)-3-(methyl-amino)cyclopentanecarboxamide] had a pEC50 of no less than 8.00. The molecule `CC1(C)C(=O)N(C2CCN(C(=O)[C@H](CCc3ccccc3)NC(=O)[C@@H]3CCCNC3)CC2)c2ccc(F)cc21` [Example 44, (R)—N—((S)-1-(4-(5-fluoro-3,3-dimethyl-2-oxoindolin-1-yl)piperidin-1-yl)-1-oxo-4-phenylbutan-2-yl)piperidine-3-carboxamide] showed a pEC50 of no less than 8.00.

The molecule `CC1(C)C(=O)N(C2CCN(C(=O)[C@H](CCc3ccccc3)NC(=O)NC[C@@H]3CCCCN3)CC2)c2ccccc21` [Example 60, 1-((S)-1-(4-(3,3-dimethyl-2-oxo-indolin-1-yl)piperidin-1-yl)-1-oxo-4-phenylbutan-2-yl)-3-((S)-piperidin-2-ylmethyl)urea] had a negative-log EC50 (pEC50) of no less than 8.00.

`CN1CCC[C@@H](C(=O)N[C@@H](CCc2ccccc2)C(=O)N2CCC(N3C(=O)C(C)(C)c4ccccc43)CC2)C1` [Example 20, (R)—N—((S)-1-(4-(3,3-dimethyl-2-oxoindolin-1-yl)piperidin-1-yl)-1-oxo-4-phenylbutan-2-yl)-1-methylpiperidine-3-carboxamide] showed a negative logarithm of the EC50 (pEC50) of no less than 8.00. The same measure, in the same setting: next, `CC1(C)C(=O)N(C2CCN(C(=O)[C@H](CCc3ccccc3)NC(=O)C3(CN)CC3)CC2)c2ccccc21` [Example 7, (S)-1-(aminomethyl)-N-(1-(4-(3,3-dimethyl-2-oxoindolin-1-yl)piperidin-1-yl)-1-oxo-4-phenylbutan-2-yl)cyclopropanecarboxamide]: no less than 8.00; `CC1(C)C(=O)N(C2CCN(C(=O)[C@H](Cc3ccccc3)NC(=O)[C@@H]3CCCNC3)CC2)c2ccccc21` [Example 82, (R)-N-((S)-1-(4-(3,3-dimethyl-2-oxoindolin-1-yl)piperidin-1-yl)-1-oxo-3-phenylpropan-2-yl) piperidine-3-carboxamide]: no less than 8.00; `CN[C@@H]1CC[C@H](C(=O)N[C@@H](Cc2ccccc2)C(=O)N2CCC(N3C(=O)C(C)(C)c4ccccc43)CC2)C1` [Example 30, (1S,3R)-N-((S)-1-(4-(3,3-dimethyl-2-oxoindolin-1-yl)piperidin-1-yl)-1-oxo-3-phenylpropan-2-yl)-3-(methylamino) cyclopentanecarboxamide]: no less than 8.00. In the case of `CC1(C)C(=O)N(C2CCN(C(=O)[C@H](Cc3ccccc3F)NC(=O)[C@@H]3CCCNC3)CC2)c2ccccc21` [Example 83, (R)-N-((S)-1-(4-(3,3-dimethyl-2-oxoindolin-1-yl)piperidin-1-yl)-3-(2-fluorophenyl)-1-oxo-propan-2-yl)piperidine-3-carboxamide], the negative-log EC50 (pEC50) was no less than 8.00.

The molecule `CC1(NC(=O)N[C@@H](CCc2ccccc2)C(=O)N2CCC(N3C(=O)C(C)(C)c4ccccc43)CC2)CCNCC1` [Example 56, (S)-1-(1-(4-(3,3-dimethyl-2-oxo-indolin-1-yl)piperidin-1-yl)-1-oxo-4-phenylbutan-2-yl)-3-(4-methyl-piperidin-4-yl)urea] had a pEC50 of no less than 8.00. The molecule `CN[C@@H]1CC[C@H](C(=O)N[C@@H](Cc2cccc(OC)c2)C(=O)N2CCC(N3C(=O)C(C)(C)c4ccccc43)CC2)C1` [Example 31, (1S,3R)-N-((S)-1-(4-(3,3-dimethyl-2-oxoindolin-1-yl)piperidin-1-yl)-3-(3-methoxyphenyl)-1-oxopropan-2-yl)-3-(methylamino)cyclopentane-carboxamide] showed a pEC50 of no less than 8.00. The same measure, in the same setting: next, `CN[C@@H]1CC[C@H](C(=O)N[C@@H](Cc2ccc(Cl)cc2)C(=O)N2CCC(N3C(=O)C(C)(C)c4ccccc43)CC2)C1` [Example 21, (1S,3R)—N—((S)-3-(4-chlorophenyl)-1-(4-(3,3-dimethyl-2-oxoindolin-1-yl)piperidin-1-yl)-1-oxopropan-2-yl)-3-(methylamino)cyclopentanecarboxamide]: no less than 8.00. Same read-out and setting: next, `CN(C)CCNC(=O)N[C@@H](CCc1ccccc1)C(=O)N1CCC(N2C(=O)C(C)(C)c3ccccc32)CC1` [Example 65, (S)-1-(1-(4-(3,3-dimethyl-2-oxo-indolin-1-yl)piperidin-1-yl)-1-oxo-4-phenylbutan-2-yl)-3-(2-(dimethyl-amino)ethyl)urea]: no less than 8.00.

The same experiment, now with this note: ED50 (nM), Table 15; functional activity toward GPR38 (motilin receptor), (S) versus (R) amino acid linker.
On to `CN[C@H]1CCN(C(=O)N[C@H](CCc2ccccc2)C(=O)N2CCC(N3C(=O)C(C)(C)c4ccccc43)CC2)C1` [Example 99, (S)—N—((R)-1-(4-(3,3-dimethyl-2-oxoindolin-1-yl)piperidin-1-yl)-1-oxo-4-phenylbutan-2-yl)-3-(methylamino)pyrrolidine-1-carboxamide], for which it took 488 nM to reach a half-maximal effect (EC50).

For the molecule `CC1(C)C(=O)N(C2CCN(C(=O)[C@@H](CCc3ccccc3)NC(=O)[C@@H]3CCCNC3)CC2)c2ccccc21` [Example 98], a half-maximal response (EC50) required 6210 nM.
